# According to PMC7857480 (The Journal of Biological Chemistry, 2020):
# Target: FigC (Francisella tularensis, UniProt Q15EG8)
# Conditions: covalent (Schiff base with K63); active site at dimer interface
# Sequence of FigC (Q15EG8 1-417): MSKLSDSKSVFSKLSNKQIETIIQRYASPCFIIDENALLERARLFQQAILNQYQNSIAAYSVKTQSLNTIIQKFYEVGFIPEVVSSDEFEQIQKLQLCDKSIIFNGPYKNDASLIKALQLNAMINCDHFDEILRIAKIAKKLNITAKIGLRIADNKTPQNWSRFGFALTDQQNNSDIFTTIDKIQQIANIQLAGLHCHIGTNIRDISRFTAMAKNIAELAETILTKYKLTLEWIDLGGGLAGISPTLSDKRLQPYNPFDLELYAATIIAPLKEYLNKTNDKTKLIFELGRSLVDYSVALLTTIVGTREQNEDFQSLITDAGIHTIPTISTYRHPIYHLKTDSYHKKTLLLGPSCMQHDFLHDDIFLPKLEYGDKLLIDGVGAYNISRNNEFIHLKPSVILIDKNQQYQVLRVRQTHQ
smiles,measurement,value
Cc1ncc(COP(=O)(O)O)c(C=O)c1O [PLP],"X-ray crystal structure, 2.1 Å, SeMet SAD",all four active sites showed good density for the cofactor PLP
